# Data published in patent US20030187048A1, “Method for inhibiting skin lesion formation using histamine as the active ingredient” (priority 1991, published 2003).
# Where “and” joins values, the source holds several entries; their conditions need not be identical. Equal values may be shown once. Read-outs that look alike come from different tables or passages of the source.
# Assays:
# [1] = system: oral mucositis (stomatitis) secondary to chemotherapy; conditions: for Mean % Reduction In Symptom (discomfort with food/drink) / Mean Percent Reduction From Original Per Day / Mean % Reduction In Symptom: group mean
# Text: Prospective subjects were considered for the study if their mucositis (stomatitis) was diagnosed by their oncologist as secondary to their chemotherapy and if their oncologist recommended them as candidates for the study.
# Patients were randomly assigned to one of three active ingredient levels being evaluated.
# Following diagnosis and recommendation of oral mucositis patients by their oncologists, qualified participants were instructed to topically, intraorally apply one teaspoonful of their respective, randomly assigned gel by swishing and holding the gel in their mouth for 2 minutes and then expectorating the gel.
# Evaluation of the extent of the oral mucous membrane involvement was based on each patient's estimate of this involvement (as a percentage) of the entire oral mucous membranes and each patient was contacted daily for this estimate as well as his or her estimate of the symptomatic relief of 5 common oral symptoms associated with mucositis (stomatitis) secondary to chemotherapy. In an attempt to quantify responses, patients were asked to rate each symptom each day an a scale of 0 to 5 with 0 representing no evidence of the symptom and 5 representing the worst or most vi prominent evidence of the symptom ever for the patient.
# Patient compliance with the study regimen and the use of other medications or treatments was also evaluated.
# [2] = system: pressure sores (decubitus ulcers); conditions: for Percent Reduction in Area from original Size / Mean Percent Reduction/Week: per patient; for Mean Percent Reduction/Week: lesion area from original size
# Text: Treatment included standardized decubitus ulcer care for all pressure sores as determined by the protocol for the study.
# Prospective subjects were considered for the study if their pressure sores (decubitus ulcers) were free from infection and either a Stage I or a Stage II lesion.
# Patients were randomly assigned to one of four active ingredient levels being evaluated. […] Assignment of subjects to the four gel concentrations was unknown to the investigator.
# The topical application of all gel concentrations to their respective, randomly assigned patients occurred once daily following careful rinsing of the pressure sore with sterile normal saline. After application of the appropriate gel concentration, each pressure sore was covered with a bio-occlusive dressing to minimize wound contamination.
# Clinical evaluation included weekly classification of the stage of the pressure sores, the size and depth of the sores, the color, signs of infection (if present), odor (if present), and patient cooperation with treatment.
compound,measurement,setting,value
"NCCc1c[nH]cn1 [IEP, 1H-imidazole-4-ethanamine,phosphate]",Mean % Reduction In Symptom (discomfort with food/drink),[1]; 0.0045% IEP gel,55.6%
same,Mean Percent Reduction From Original Involvement Per Day,"[1]; 0.0045% IEP gel, per patient",33.3% and 18.0% and 25.0%
same,Percent of Mouth that Lesions Occupy,"[1]; 0.0045% gel, Day 4, per patient",0% and 25% and 1%
same,Percent of Mouth that Lesions Occupy,"[1]; 0.0045% gel, Day 5, per patient",0%
same,Percent of Mouth that Lesions Occupy,"[1]; 0.0045% gel, Day 6, per patient",0% (2×) and 5%
same,Percent of Mouth that Lesions Occupy,"[1]; 0.0045% gel, Day 7, per patient",0%
same,Mean Percent Reduction From Original Per Day,[1]; 0.0045% gel,25.4%
same,Mean % Reduction In Symptom (discomfort with food/drink),[1]; 0.0275% IEP gel,52.8%
same,Mean Percent Reduction From Original Involvement Per Day,"[1]; 0.0275% IEP gel, per patient",50.0% and 33.3% (2×)
same,Percent of Mouth that Lesions Occupy,"[1]; 0.0275% gel, Day 1 of treatment, per patient",50% and 25% (2×)
same,Percent of Mouth that Lesions Occupy,"[1]; 0.0275% gel, Day 2, per patient",30% and 25% (2×)
same,Percent of Mouth that Lesions Occupy,"[1]; 0.0275% gel, Day 3, per patient",25% (2×) and 0%
same,Percent of Mouth that Lesions Occupy,"[1]; 0.0275% gel, Day 4, per patient",0%
same,Percent of Mouth that Lesions Occupy,"[1]; 0.0275% gel, Day 5, per patient",0%
same,Percent of Mouth that Lesions Occupy,"[1]; 0.0275% gel, Day 6, per patient",0%
same,Percent of Mouth that Lesions Occupy,"[1]; 0.0275% gel, Day 7, per patient",0%
same,Mean Percent Reduction From Original Per Day,[1]; 0.0275% gel,38.9%
same,Difference in reduction of oral mucous membrane involvement vs placebo,"[1]; 0.0275% vs placebo, p<.O1",highly statistically significant
same,Mean % Reduction In Symptom,"[1]; Table 9.7, 0.0045% gel",58.3%
same,Mean % Reduction In Symptom,"[1]; Table 9.7, 0.0275% gel",83.3%
same,Mean Percent Reduction Per Day in Discomfort with Food/Drink,"[1]; Table 9.7, 0.0275% gel, per patient",100.0% (2×) and 50.0%
same,Untoward effects,[1]; in vivo,no untoward effects
same,Percent Reduction in Area from original Size,"[2]; 0.0045% IEP gel, end of treatment week 1",28.5% and 29.8%
same,Percent Reduction in Area from original Size,"[2]; 0.0045% IEP gel, end of week 2",33.6% and 66.6%
same,Percent Reduction in Area from original Size,"[2]; 0.0045% IEP gel, end of week 3",51.6% and 72.8%
same,Percent Reduction in Area from original Size,"[2]; 0.0045% IEP gel, end of week 4",71.7% and 84.9%
same,Percent Reduction in Area from original Size,"[2]; 0.0045% IEP gel, end of week 5",78.8% and 90.1%
same,Percent Reduction in Area from original Size,"[2]; 0.0045% IEP gel, end of week 6",87.0% and 95.6%
same,Percent Reduction in Area from original Size,"[2]; 0.0045% IEP gel, end of week 7",91.4% and 97.5%
same,Percent Reduction in Area from original Size,"[2]; 0.0045% IEP gel, end of week 8",92.3% and 99.4%
same,Percent Reduction in Area from original Size,"[2]; 0.0045% IEP gel, end of week 9",92.3% and 99.4%
same,Percent Reduction in Area from original Size,"[2]; 0.0045% IEP gel, end of week 10",99.4%
same,Mean Percent Reduction/Week,[2]; 0.0045% gel,10.3% and 12.1%
same,Percent Reduction in Area from original Size,"[2]; 0.0069% IEP gel, end of week 1",48.6% and 55.6%
same,Percent Reduction in Area from original Size,"[2]; 0.0069% IEP gel, end of week 2",77.1% and 60.0%
same,Percent Reduction in Area from original Size,"[2]; 0.0069% IEP gel, end of week 3",77.1% and 78.2%
same,Percent Reduction in Area from original Size,"[2]; 0.0069% IEP gel, end of week 4",100% and 81.3%
same,Percent Reduction in Area from original Size,"[2]; 0.0069% IEP gel, end of week 5",84.4%
same,Percent Reduction in Area from original Size,"[2]; 0.0069% IEP gel, end of week 6",88.9%
same,Percent Reduction in Area from original Size,"[2]; 0.0069% IEP gel, end of week 7",100%
same,Mean Percent Reduction/Week,[2]; 0.0069% gel,14.3% and 25.0%
same,Percent Reduction in Area from original Size,"[2]; 0.009% IEP gel, end of week 1",66.7% and 56.5%
same,Percent Reduction in Area from original Size,"[2]; 0.009% IEP gel, end of week 2",100.0% and 56.5%
same,Percent Reduction in Area from original Size,"[2]; 0.009% IEP gel, end of week 3",100.0%
same,Mean Percent Reduction/Week,[2]; 0.009% gel,50.0% and 40.0%
same,Reducing the size of pressure sores vs placebo gel,"[2]; 0.009% vs 0%, mean percent reduction in area per week, p<0.05",statistically significantly more effective
same,Untoward effects,[2]; in vivo,no untoward effects
